Measured values from patent publication US5639950A, “Nucleotide sequence encoding for bifunctional enzyme for proline production” (The Ohio State University Research Foundation, priority 1994, dated 1997).

Key:
[1] = system: wild-type E. coli gamma-GK; assay: biochemical; conditions: more sensitive than Vigna enzyme
Description: (§1) FIG. 3 is a graph illustrating feedback inhibition of delta^1 -pyrroline-5-carboxylate synthetase by proline. Ammonium sulfate-fractionated extracts from E. coli CSH26 (.circle-solid.), E. coli CSH26 harboring PVAB2 (.smallcircle.), the proB74 allele (.orgate.), and the wild-type proB allele (.quadrature.) were assayed for gamma-GK activity by the method of Hayzer and Leisinger, J. Gen. Microbiol., 118, 1980, pp. 287-293.
(§2) P5CS has GSA dehydrogenase and gamma-GK activities, and the gamma-GK activity is feedback inhibited by proline. To confirm that the presently claimed sequence, PVAB2 of FIGS. 1A, 1B, 1C and 1D, encoded P5CS activity, ammonium sulfate-fractionated extracts of E. coli CSH26 and CSH26 harboring PVAB2 were assayed for GSA dehydrogenase-dependent gamma-GK enzyme activity. […] Because proline production is regulated by end-product inhibition of gamma-GK in bacteria, the plant enzyme P5CS was similarly subjected to feed-back control testing. […] The mutation responsible for the resistance to end-product inhibition of the gamma-GK in the proB 74 allele involves a substitution of an A for a G nucleotide, resulting in a change from aspartic acid to asparagine residue at position 107.
(§3) E. coli CSH26 cells and CSH26 harboring different plasmids were grown aerobically at 37° C. for about 16 hours. The cells were harvested by centrifugation at 4,000× g for 10 minutes, and the cell paste resulting was suspended in 4 ml of buffer A (50 mM Tris-Hcl, 1 mM dithiothreitol) at […] Following sonication, (Benson Sonifier, Type 450) at 50 watts, the slurry was centrifuged at 4,000× g for 10 minutes and the supernatant fractionated by ammonium sulfate precipitation. For E. coli CSH26 containing PVAB2, the fraction precipitating between 0 and 30% saturation of ammonium sulfate was used for enzyme assay.

[2] = target: Vigna aconitifolia delta1-pyrroline-5-carboxylate synthetase (P5CS) (Vigna aconitifolia, UniProt P32296); assay: biochemical
Sequence of Vigna aconitifolia delta1-pyrroline-5-carboxylate synthetase (P5CS) (P32296 whole entry): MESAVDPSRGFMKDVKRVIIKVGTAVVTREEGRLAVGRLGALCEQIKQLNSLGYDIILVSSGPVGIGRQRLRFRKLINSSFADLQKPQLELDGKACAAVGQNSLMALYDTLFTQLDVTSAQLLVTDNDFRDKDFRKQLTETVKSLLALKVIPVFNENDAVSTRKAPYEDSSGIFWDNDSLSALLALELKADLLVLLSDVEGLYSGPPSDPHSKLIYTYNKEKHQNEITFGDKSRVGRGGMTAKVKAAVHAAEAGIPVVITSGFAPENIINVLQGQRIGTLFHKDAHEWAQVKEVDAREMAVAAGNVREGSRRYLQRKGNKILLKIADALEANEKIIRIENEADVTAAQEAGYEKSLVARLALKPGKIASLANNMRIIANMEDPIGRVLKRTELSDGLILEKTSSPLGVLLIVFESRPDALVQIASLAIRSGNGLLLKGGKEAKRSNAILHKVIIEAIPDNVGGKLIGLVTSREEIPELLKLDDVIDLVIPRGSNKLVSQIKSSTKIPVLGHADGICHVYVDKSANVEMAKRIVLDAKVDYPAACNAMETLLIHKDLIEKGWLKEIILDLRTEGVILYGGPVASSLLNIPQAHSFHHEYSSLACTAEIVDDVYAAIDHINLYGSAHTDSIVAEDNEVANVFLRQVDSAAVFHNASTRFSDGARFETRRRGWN
Description: as §1, §2, §3

[3] = target: T1, wild-type E. coli gamma-GK (Escherichia coli, UniProt P0A7B5); assay: biochemical
T1 construct: made in house; host or cells: E. coli CSH26 harboring the wild-type proB allele (plasmid pDU1 from A. Dandekar); ammonium sulfate fraction 40-60%
T1 sequence (P0A7B5 whole entry): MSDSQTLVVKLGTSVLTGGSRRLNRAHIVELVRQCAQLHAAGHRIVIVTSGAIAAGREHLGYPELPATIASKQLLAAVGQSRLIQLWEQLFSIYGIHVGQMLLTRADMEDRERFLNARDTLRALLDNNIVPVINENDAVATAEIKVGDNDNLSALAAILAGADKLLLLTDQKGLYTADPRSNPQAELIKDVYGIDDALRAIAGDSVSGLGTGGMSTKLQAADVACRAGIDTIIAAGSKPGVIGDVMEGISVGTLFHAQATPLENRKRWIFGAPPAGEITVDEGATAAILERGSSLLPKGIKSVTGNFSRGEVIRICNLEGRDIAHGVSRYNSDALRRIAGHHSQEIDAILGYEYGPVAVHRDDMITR
Description: as §1, §2, §3

[4] = target: mutant E. coli gamma-GK encoded by the proB74 allele (Escherichia coli, UniProt P0A7B5, D107N); conditions: proB74 mutant form of the bacterial enzyme
Sequence of mutant E. coli gamma-GK encoded by the proB74 allele (P0A7B5 whole entry D107N): as the sequence (P0A7B5 whole entry) above, with D107N counted along it
Description: as §1, §2
E. coli CSH26 cells and CSH26 harboring different plasmids were grown aerobically at 37° C. for about 16 hours. […]

With `O=C(O)[C@@H]1CCCN1` [proline] the “sensitivity to proline of wild-type E. coli gamma-GK relative to the Vigna enzyme” value [1] was 30 times, the IC50 [2] was 6 mM and the IC50 [3] was 0.2 mM. For the same compound, the “sensitivity to end product (proline) inhibition, fold less sensitive” value [4] was “approximately 200 fold”.
